According to PubChem BioAssay (NCI):
Values joined by “and” are separate entries in the source; they are usually repeats but may differ in a detail not shown here. Identical values can stand only once.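 Interpolation was linear, between the two tested concentrations surrounding the appropriate level; five concentrations were tested over 48 hours in 96-well plates. The concentration for 50% growth inhibition is given as GI50. TGI denotes the concentration required for complete inhibition of growth.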

Legend:
Assay in all cases: NCI-60 cell line screen, 48 h
A498 renal = tested on: A498 renal
SR leukemia = tested on: SR leukemia
NCI-H226 lung = tested on: NCI-H226 lung
HCT-15 colon = tested on: HCT-15 colon
SW-620 colon = tested on: SW-620 colon
HCC-2998 colon = tested on: HCC-2998 colon
HOP-92 NSCLC = tested on: HOP-92 NSCLC
SF-295 CNS = tested on: SF-295 CNS
NCI-H23 lung = tested on: NCI-H23 lung
HT29 colon = tested on: HT29 colon

Row | SMILES | GI50 (A498 renal) | TGI (A498 renal) | GI50 (SR leukemia) | GI50 (NCI-H226 lung) | TGI (NCI-H226 lung) | GI50 (HCT-15 colon) | TGI (HCT-15 colon) | GI50 (SW-620 colon) | TGI (SW-620 colon) | GI50 (HCC-2998 colon) | TGI (HCC-2998 colon) | GI50 (HOP-92 NSCLC) | TGI (HOP-92 NSCLC) | GI50 (SF-295 CNS) | TGI (SF-295 CNS) | GI50 (NCI-H23 lung) | TGI (NCI-H23 lung) | GI50 (HT29 colon) | TGI (HT29 colon) | TGI (SR leukemia)
1 | O=c1[nH]nc(-c2ccccc2)c2c(-c3ccccc3)onc12 | 0.287 µM | 3.69 µM | 0.288 µM | > 21 µM | > 100 µM | 0.554 µM | > 100 µM | 0.319 µM | > 100 µM | 39.7 µM | > 96.3 µM | 0.933 µM | > 58.3 µM | 0.72 µM | > 100 µM | 4.83 µM | > 100 µM | 0.391 µM | > 100 µM | –
2 | CC1=C(C(=O)Nc2ccccc2C)C(c2ccccc2C)C(C(=O)Nc2ccccc2C)=C(C)N1 | – | > 100 µM | – | – | 46.9 µM | – | 40.3 µM | – | 36.2 µM | – | 36.4 µM | – | 29.4 µM | – | 44.2 µM | – | 68.4 µM | – | 43 µM | 65.4 µM
3 | CC(=O)n1c(-c2ccc(Cl)c(Cl)c2)cn(-c2ccc(Cl)cc2)c1=O | 20.9 µM | 47 µM | 16.1 µM | 24.3 µM | 74.5 µM | 63.7 µM | > 100 µM | 30.9 µM | > 100 µM | 91.5 µM | > 100 µM | 13.9 µM | 30.2 µM | 11.9 µM | 28.8 µM | – | – | 57.7 µM | > 100 µM | 33 µM
4 | CN(C)c1ncnc2c1ccn2C1OC(CO)C(O)C1O (stereo not drawn) | 3.49 µM | > 100 µM | 13.8 µM | > 100 µM | > 100 µM | 1.1 µM | > 66.2 µM | 2.55 µM | > 100 µM | 1.89 µM | 18.1 µM | 0.883 µM | 5.64 µM | 6.48 µM | > 100 µM | 5.45 µM | > 100 µM | 1.47 µM | > 100 µM | > 100 µM
5 | O=C(Cn1c2ccccc2c2ccncc21)N/N=C\c1ccc2ccccc2c1 | 27.5 µM | 80.8 µM | 6.39 µM | 21.9 µM | 65.2 µM | 14.7 µM | > 100 µM | 12.7 µM | > 100 µM | 35.9 µM | > 100 µM | 12.4 µM | 36.7 µM | 14.8 µM | 34.6 µM | 17.6 µM | 52.6 µM | 21.7 µM | 50.3 µM | > 100 µM
6 | CC1CC(=O)c2c(ccc3c2C(=O)c2cccc(O)c2C3=O)C1 (stereo not drawn) | – | 27.5 µM | – | – | 34.3 µM | – | 22.9 µM | – | 17.4 µM | – | 23.2 µM | – | 13.1 µM | – | 23.2 µM | – | 27.1 µM | – | 18.5 µM | 35.9 µM
7 | COc1cc2nncc(SCc3ccc(Cl)c(Cl)c3)c2cc1OC | – | > 100 µM | – | – | > 100 µM | – | > 100 µM | – | > 100 µM | – | > 100 µM | – | > 100 µM | – | > 100 µM | – | > 100 µM | – | > 100 µM | > 100 µM
8 | O=C(CC(=O)c1ccccc1)C(=O)NC12CC3CC(CC(C3)C1)C2 | – | > 100 µM | – | – | > 100 µM | – | > 54.3 µM | – | > 58.7 µM | – | > 100 µM | – | > 100 µM | – | > 100 µM | – | > 100 µM | – | > 100 µM | > 100 µM
9 | CN(CCCN(C)CCC1CCCCC1)CCC1CCCCC1 | 5.14 µM | 13.8 µM | 1.19 µM | 2.57 µM | 11.9 µM | 2.02 µM | 8.21 µM | 2.28 µM | 6.84 µM | 1.6 µM | 3.23 µM | 0.687 µM | 5.72 µM | 1.46 µM | 3.02 µM | 8.7 µM | 22.1 µM | 0.475 µM | 2.37 µM | 4.21 µM
10 | Cc1ccc(-c2c3c(N)c4c(nc3nc3c2c(C)nn3-c2ccccc2)CCC4)cc1 | 16.1 µM | 32.6 µM | 0.472 µM | 22.1 µM | 53.7 µM | 2.11 µM | 5.15 µM | 2.6 µM | 9.57 µM | 3 µM | 8.43 µM | 15.7 µM | 36.3 µM | 7.45 µM | 21.9 µM | 17.5 µM | 40 µM | 5.07 µM | 10.9 µM | 9.61 µM
11 | CCc1c2c(nc3ccc(OCc4ccc(B5OC(C)(C)C(C)(C)O5)cc4)cc13)-c1cc3c(c(=O)n1C2)COC(=O)[C@]3(O)CC | 0.0406 µM | 0.376 µM | < 0.01 µM | 0.0214 µM | 0.454 µM | 0.331 µM | > 100 µM | 0.0258 µM | > 100 µM | 0.185 µM | > 100 µM | 0.0378 µM | 0.963 µM | – | – | 0.0248 µM | 0.219 µM | 0.115 µM | > 100 µM | > 100 µM
12 | Cc1cc(Cl)ccc1Nc1nc(C(F)(F)F)ccc1C(=O)Nc1cccc(C(F)(F)F)c1 | 2.79 µM | 7.43 µM | 2.56 µM | 4.05 µM | 17.6 µM | 2.56 µM | 7.35 µM | 4.23 µM | 16.6 µM | 3.3 µM | 15.7 µM | 2.21 µM | 8.16 µM | 3.24 µM | 13.3 µM | 2.85 µM | 11.1 µM | 3.07 µM | 10.8 µM | 8.28 µM
13 | CN(C)C(=S)SCC(N)=O | – | > 100 µM | – | – | > 100 µM | – | > 100 µM | – | > 100 µM | – | > 100 µM | – | > 100 µM | – | > 100 µM | – | > 100 µM | – | > 100 µM | > 100 µM
14 | O=C1C=C(OCCCl)C(=O)c2c(O)ccc(O)c21 | 2.38 µM | 2.55 µM and 4.25 µM | – | – | 5.07 µM and 4.64 µM | 1.4 µM | 0.433 µM and 3.15 µM | 0.296 µM and 1.56 µM | 1.15 µM and 3.85 µM | 1.12 µM | 3.03 µM and 2.47 µM | 3.43 µM | 3.8 µM and 8 µM | 2.44 µM | 3 µM and 4.53 µM | 1.5 µM | 0.503 µM and 3.22 µM | 1.12 µM | 1.03 µM and 2.89 µM | 3.22 µM
15 | O=CN1N=C(c2ccc(Nc3ccnc4cc(Cl)ccc34)cc2)CC1c1ccc(Cl)cc1 (stereo not drawn) | > 100 µM | > 100 µM | 0.324 µM | 4.66 µM | > 100 µM | 0.58 µM | > 100 µM | 0.478 µM | > 100 µM | 1.61 µM | 8.11 µM | > 100 µM | > 100 µM | 0.274 µM | 1.08 µM | 2.77 µM | > 100 µM | 0.407 µM | 8.5 µM | > 100 µM
